In patent US6696559B1, “Antimicrobial peptides and methods of use” (The Regents of the University of California, priority 1996, dated 2004):
“Also recorded” adds a separate entry of the source. Where no end group is shown, it is not given here.

What was measured:
S. aureus 502A = experiment: microbicidal suspension assay; assay type: cell-based
Procedure: (§1) Antimicrobial assay. E. coli ML35, S. aureus 502A, C. albicans, and C. neoformans were used as target organisms in a microbicidal suspension assay as previously described (Selsted, M. E., Genetic Engineering: Principles and Methods, J. K. Setlow, Plenum Press, New York, 1993, pp. 131-147).
(§2) Natural and synthetic BGP-A and synthetic BGP-A-amide were tested for their microbicidal activities against S. aureus 502A, E. coli ML35, C. albicans, and C. neoformans. Using a microbicidal suspension assay (Selsted, M. E., Genetic Engineering: Principles and Methods, J. K. Setlow, Plenum Press, New York, 1993, pp.131-147), each peptide was tested against the four test organisms with peptide concentrations ranging from 5-100 μg/ml. The bactericidal and fungicidal activities of the three peptide preparations were assessed using a standard microbicidal assay. Organisms were grown to mid-log phase, harvested, and suspended to 2×10^7 CFU/ml. The incubation mixture contained 1-2×10^6 CFU/ml, 10 mM sodium phosphate buffer, pH 7.4, and peptide at concentrations up to 100 μg/ml. After 1 h of incubation at 37° C. (4 h incubations for C. neoformans), serial 10-fold dilutions were plated on Trypticase Soy Agar (bacteria) or S. abaraud dextrose agar (fungi), and incubated for 24-48 h at 37° C. Killing was quantitated by colony counting, and plotted as a function of peptide concentration in the incubation.

E. coli ML35 = experiment: microbicidal suspension assay; assay type: cell-based
Procedure: as §1, §2

C. neoformans = experiment: microbicidal suspension assay; assay type: cell-based
Procedure: as §1, §2

C. albicans = experiment: microbicidal suspension assay; assay type: cell-based
Procedure: as §1, §2

S. aureus = conditions: Selsted et al., J. Biol. Chem. 267:4292-4295, 1992; cited from earlier work
E. coli = conditions: Selsted et al., J. Biol. Chem. 267:4292-4295, 1992; cited from earlier work
[1] = 1 h incubation, synthetic versus natural peptide, listed as synthetic BGP-A
[2] = peptide 5-100 μg/ml, 10 mM sodium phosphate buffer, pH 7.4, 1 h at 37° C., FIG. 7

Substance | microbicidal potency compared with natural BGP-A (S. aureus 502A; [1]) | microbicidal activity (reduction in colony forming units) (S. aureus 502A; [2]) | microbicidal potency compared with natural BGP-A (E. coli ML35; [1]) | microbicidal activity (reduction in colony forming units) (E. coli ML35; [2]) | microbicidal potency compared with natural BGP-A (C. neoformans; 4 h incubation, synthetic versus natural peptide, listed as synthetic BGP-A) | microbicidal activity (reduction in colony forming units) (C. neoformans; peptide 5-100 μg/ml, 10 mM sodium phosphate buffer, pH 7.4, 4 h at 37° C., FIG. 7) | microbicidal potency compared with natural BGP-A (C. albicans; [1]) | microbicidal activity (reduction in colony forming units) (C. albicans; [2]) | bactericidal activity (S. aureus) | bactericidal activity (E. coli)
YKIIQQWPHYRRV [BGP-A, thirteen-residue peptide antibiotic expressed in bovine granulocytes, …; tested as natural and synthetic preparations] | equal in potency; also recorded: equivalent killing activity | microbicidal | equal in potency; also recorded: equivalent killing activity | microbicidal | equal in potency; also recorded: equivalent killing activity | microbicidal | equal in potency; also recorded: equivalent killing activity | microbicidal | – | –
indolicidin: novel tridecapeptide amide from bovine neutrophils, cationic, unusually rich in tryptophan (ILPWKWPWWPWRR-NH2; UniProt P33046 131-143, looked up) | – | – | – | – | – | – | – | – | potent bactericidal activity | potent bactericidal activity
